Test system: cataract formation in galactocemic rats
Assay: in vivo dose response by intubation (per oral) in galactocemic rats, cataract (vacuole) formation
Parameters: species or system Charles River CD (Sprague-Dawley derived) male rats
Details: for Relative Potency (antilog) / log relative potency for eyes with vacuoles or more advanced cataracts: observation day 12, 95% confidence limits
Protocol: B. In vivo dose response studies were conducted to test the in vivo activity of the following compounds by intubation (per oral) in galactocemic rats on a 30% galactose diet previously described:
Stock suspensions of the test compounds and all dilutions of the compound were formulated with 0.03% by weight Tween 80.
Healthy, Charles River CD (outbred albino, Sprague-Dawley derived) male rats, aged 20-30 days, without observable ocular defects and ranging in weight from 35-45 grams, were acclimated to experimental conditions (in quarantine) for two days prior to beginning the study.
Rats were individually assigned to one of twenty-three groups according to a random number schedule. Two rats, belonging to the same drug-diet treatment group, were housed per cage. Treatment and control groups consisted of six (6) rats each with no replacement in the event of death, and were designated as follows:
Lenses of all eyes were examined with a hand-held ophthalmoscope in the early stages of cataract development and a penlight for the stages, snowflake-like, snowflake, and nuclear cataract. Lens grading occurred every day for the first ten study days, and then every other day until study Day 14.
The relative potency determination was made at 7 drug levels over half log dose intervals. The response (percent cataracts formed and/or the time to cataract formation) was plotted against mg/kg and/or moles/kg.
The study was directed to the suppression and/or elimination of the initial stages of cataract development characterized by vacuoles or snowflake-likeopacities only. It was assumed therefore that suppression and/or elimination of vacuoles or lens opacification by the test drugs affects the transport, absorption and/or metabolism of galactose in such a manner as to prevent subsequent osmotic disturbances normally leading to tissue degeneration and advanced cataract. Advanced cataract defined as stages 2-4 of the Sipple classification was assumed to be of secondary importance to the etiology of cataract inhibition.
In the event where cataract stage other than vacuole formed, such as snowflake-like opacities, this cataract was counted similarly as vacuole in percent cataract formation.
This study yielded this expected effect in the control groups.
All animals were fed Purina Laboratory Chow and water, ad libitum, for the two day acclimation period. All drugs were dosed orally by intubation using an animal feeding needle (Popper and Sons), 18 or 20 gauge, attached to a 1 or 3 ml syringe. Once the dosing time schedule was established, the schedule was followed throughout the study to compensate for any diurnal variation.
The animals were kept on a twelve hour day/night cycle. The temperature and humidity were determined each day at the scheduled dosing time of 1:00 p.m.
The animals were weighed every other day and adjustments to dosage amounts to compensate for weight gain were made each day prior to the dose time. All food was routinely withheld from all animal groups for four hours (9:00 a.m.) prior to the drug dose and restored two hours (3:00 p.m.) post-dose. Otherwise sufficient amounts of chow or diet mixture were maintained in the food hopper to allow the animals to eat ad libitum. There were two days of drug dosage with the animals remaining on Purina Laboratory Chow (Days 1 and 2). The 30% galactose diet mixture was introduced to the animals two hours post-dose on Day 3 which constituted Day 1 of the study.
All eyes were examined with a hand-held ophthalmoscope and/or penlight at the times designated in the Experimental Design section.
It has been found in previous studies that dilation of the eye with a mydriactic (i.e. Mydriacyl) is not necessary for accurate grading, due to the semi-transparent nature of the rat iris. In the early stages (i.e., grades -, ±, and +) the lens was observed by reflecting the ophthalmoscope beam off the retina back through the lens and iris. Using this technique, vacuoles appear as dark, almost opaque patches. […]

O=C1NC(=O)C2(N1)c1cc(F)ccc1-c1ccc(F)cc12 [M, Spiro-[2,7-difluorofluoren-9,4'-imidazolidine]-2',5'-dione]
Percent of Rat Eyes With at Least Vacuoles Formed (4.0 mg/kg p.o., Day 9): 0.0%
Percent of Rat Eyes With at Least Vacuoles Formed (4.0 mg/kg p.o., Day 9, listed as 2,7-difluoro): 0%
Percent of Rat Eyes With at Least Vacuoles Formed (4.0 mg/kg p.o., Day 10): 0.0%
Percent of Rat Eyes With at Least Vacuoles Formed (4.0 mg/kg p.o., Day 10, listed as 2,7-difluoro): 0%
Percent of Rat Eyes With at Least Vacuoles Formed (4.0 mg/kg p.o., Day 12): 0.0%
Percent of Rat Eyes With at Least Vacuoles Formed (4.0 mg/kg p.o., Day 12, listed as 2,7-difluoro): 0%
Percent of Rat Eyes With at Least Vacuoles Formed (4.0 mg/kg p.o., Day 14): 0.0%
Percent of Rat Eyes With at Least Vacuoles Formed (4.0 mg/kg p.o., Day 14, listed as 2,7-difluoro): 0%
Percent of Rat Eyes With at Least Vacuoles Formed (12.6 mg/kg p.o., Day 0): 0%
Percent of Rat Eyes With at Least Vacuoles Formed (12.6 mg/kg p.o., Day 1): 0%
Percent of Rat Eyes With at Least Vacuoles Formed (12.6 mg/kg p.o., Day 2): 0%
Percent of Rat Eyes With at Least Vacuoles Formed (12.6 mg/kg p.o., Day 3): 0%
Percent of Rat Eyes With at Least Vacuoles Formed (12.6 mg/kg p.o., Day 4): 0%
Percent of Rat Eyes With at Least Vacuoles Formed (12.6 mg/kg p.o., Day 5): 0%
Percent of Rat Eyes With at Least Vacuoles Formed (12.6 mg/kg p.o., Day 6): 0.0%
Percent of Rat Eyes With at Least Vacuoles Formed (12.6 mg/kg p.o., Day 6, listed as 2,7-difluoro): 0%
Percent of Rat Eyes With at Least Vacuoles Formed (12.6 mg/kg p.o., Day 7): 0.0%
Percent of Rat Eyes With at Least Vacuoles Formed (12.6 mg/kg p.o., Day 7, listed as 2,7-difluoro): 0%
Percent of Rat Eyes With at Least Vacuoles Formed (12.6 mg/kg p.o., Day 8): 0.0%
Percent of Rat Eyes With at Least Vacuoles Formed (12.6 mg/kg p.o., Day 8, listed as 2,7-difluoro): 0%
Percent of Rat Eyes With at Least Vacuoles Formed (12.6 mg/kg p.o., Day 9): 0.0%
Percent of Rat Eyes With at Least Vacuoles Formed (12.6 mg/kg p.o., Day 9, listed as 2,7-difluoro): 0%
Percent of Rat Eyes With at Least Vacuoles Formed (12.6 mg/kg p.o., Day 10): 0.0%
Percent of Rat Eyes With at Least Vacuoles Formed (12.6 mg/kg p.o., Day 10, listed as 2,7-difluoro): 0%
Percent of Rat Eyes With at Least Vacuoles Formed (12.6 mg/kg p.o., Day 12): 0.0%
Percent of Rat Eyes With at Least Vacuoles Formed (12.6 mg/kg p.o., Day 12, listed as 2,7-difluoro): 0%
Percent of Rat Eyes With at Least Vacuoles Formed (12.6 mg/kg p.o., Day 14): 0.0%
Percent of Rat Eyes With at Least Vacuoles Formed (12.6 mg/kg p.o., Day 14, listed as 2,7-difluoro): 0%
Percent of Rat Eyes With at Least Vacuoles Formed (40 mg/kg p.o., Day 0): 0%
Percent of Rat Eyes With at Least Vacuoles Formed (40 mg/kg p.o., Day 1): 0%
Percent of Rat Eyes With at Least Vacuoles Formed (40 mg/kg p.o., Day 2): 0%
Percent of Rat Eyes With at Least Vacuoles Formed (40 mg/kg p.o., Day 3): 0%
Percent of Rat Eyes With at Least Vacuoles Formed (40 mg/kg p.o., Day 4): 0%
Percent of Rat Eyes With at Least Vacuoles Formed (40 mg/kg p.o., Day 5): 0%
Percent of Rat Eyes With at Least Vacuoles Formed (40 mg/kg p.o., Day 6): 0.0%
Percent of Rat Eyes With at Least Vacuoles Formed (40 mg/kg p.o., Day 6, listed as 2,7-difluoro): 0%
Percent of Rat Eyes With at Least Vacuoles Formed (40 mg/kg p.o., Day 7): 0.0%
Percent of Rat Eyes With at Least Vacuoles Formed (40 mg/kg p.o., Day 7, listed as 2,7-difluoro): 0%
Percent of Rat Eyes With at Least Vacuoles Formed (40 mg/kg p.o., Day 8): 0.0%
Percent of Rat Eyes With at Least Vacuoles Formed (40 mg/kg p.o., Day 8, listed as 2,7-difluoro): 0%
Percent of Rat Eyes With at Least Vacuoles Formed (40 mg/kg p.o., Day 9): 0.0%
Percent of Rat Eyes With at Least Vacuoles Formed (40 mg/kg p.o., Day 9, listed as 2,7-difluoro): 0%
Percent of Rat Eyes With at Least Vacuoles Formed (40 mg/kg p.o., Day 10): 0.0%
Percent of Rat Eyes With at Least Vacuoles Formed (40 mg/kg p.o., Day 10, listed as 2,7-difluoro): 0%
Percent of Rat Eyes With at Least Vacuoles Formed (40 mg/kg p.o., Day 12): 0.0%
Percent of Rat Eyes With at Least Vacuoles Formed (40 mg/kg p.o., Day 12, listed as 2,7-difluoro): 0%
Percent of Rat Eyes With at Least Vacuoles Formed (40 mg/kg p.o., Day 14): 0.0%
Percent of Rat Eyes With at Least Vacuoles Formed (40 mg/kg p.o., Day 14, listed as 2,7-difluoro): 0%
activity in vivo relative to the Sarges compound (rat studies): unexpectedly and significantly more active
Relative Potency (antilog) (relative to 2-fluoro (L)): 2.80
log relative potency for eyes with vacuoles or more advanced cataracts (relative to 2-fluoro (L)): 0.4473
Relative Potency (antilog) (relative to Sarges Racemic): 12.92
log relative potency for eyes with vacuoles or more advanced cataracts (relative to Sarges Racemic): 1.1114
